# Measured values as given in patent publication EP4818176A1, “TETRACYCLIC DERIVATIVE INHIBITOR, AND PREPARATION METHOD AND USE THEREFOR” (Shanghai Hansoh Biomedical Co., Ltd., priority 2023, dated 2025).
# Target: T1, PRMT5/MEP50-MTA protein complex (Homo sapiens, UniProt O14744)
# T1 construct: purchased Viva Biotech
# Assay: Thermal shift assay: thermal stability (melting temperature) of PRMT5/MEP50-MTA protein complex
# Format: binding
# Conditions: final compound concentration 8 µM; 2 µM PRMT5/MEP50, 2 µM MTA; Tm minus Tm of DMSO vehicle control
# Text: Test Example 1: Determination of the ability of the compounds of the present invention to improve the thermal stability (melting temperature) of the PRMT5/MEP50-MTA protein complex.
# 1 Experimental objective: The objective of this test example is to determine the ability of the compound to improve the thermal stability of the PRMT5/MEP50-MTA protein complex, resulting in an increase in the protein melting temperature. 2 Experimental instruments: Quantitative PCR instrument (Quantstudio6 Flex) was purchased from Life Technologies; pipettes were purchased from Eppendorf or Rainin. 3 Experimental reagents and consumables: PRMT5/MEP50 protein was prepared by Viva Biotech; HEPES was purchased from Thermo Fisher Scientific (Cat. No. 15630080); DTT was purchased from Sigma (Cat. No. 43816-10ml); sodium chloride was purchased from Invitrogen (Cat. No. AM9760G); Protein Thermal Shift™ Dye Kit was purchased from Thermo Fisher Scientific (Cat. No. 4461146); methylthioadenosine (MTA) was purchased from Sigma (Cat. No. D5011). 4 Experimental method: In this experiment, the thermal shift method was used to measure the change in the melting temperature (Tm) of the PRMT5/MEP50-MTA protein complex before and after compound binding, thereby characterising the ability of the compound to improve the thermal stability of the PRMT5/MEP50-MTA protein complex. A solution containing 50 mM HEPES, 10 mM DTT, 2 µM MTA, SYPRO Orange and 250 mM NaCl was prepared as the experimental buffer. Human PRMT5/MEP50 protein was added to a final concentration of 2 µM, and the mixture was incubated at room temperature for 30 minutes. The above reaction mixture was aliquoted into 8-strip PCR tubes at 19.5 µL per tube. Then 0.5 µL of test compound or DMSO was added to each tube, providing a total reaction volume of 20 µL and a final compound concentration of 8 µM. 2.5% DMSO was set as the vehicle control. After incubation at room temperature for 10 minutes, the PCR tubes were placed in a PCR instrument, and the melt curve function was selected to measure the melting temperature of the PRMT5/MEP50-MTA protein complex in different treatment groups (heated from 25°C to 95°C, 0.03°C/s). 5 Experimental data processing method: The experimental data files from the PCR instrument were imported into the thermal shift software to obtain the melting temperature (Tm) for each treatment group.
# T1 sequence (O14744 whole entry): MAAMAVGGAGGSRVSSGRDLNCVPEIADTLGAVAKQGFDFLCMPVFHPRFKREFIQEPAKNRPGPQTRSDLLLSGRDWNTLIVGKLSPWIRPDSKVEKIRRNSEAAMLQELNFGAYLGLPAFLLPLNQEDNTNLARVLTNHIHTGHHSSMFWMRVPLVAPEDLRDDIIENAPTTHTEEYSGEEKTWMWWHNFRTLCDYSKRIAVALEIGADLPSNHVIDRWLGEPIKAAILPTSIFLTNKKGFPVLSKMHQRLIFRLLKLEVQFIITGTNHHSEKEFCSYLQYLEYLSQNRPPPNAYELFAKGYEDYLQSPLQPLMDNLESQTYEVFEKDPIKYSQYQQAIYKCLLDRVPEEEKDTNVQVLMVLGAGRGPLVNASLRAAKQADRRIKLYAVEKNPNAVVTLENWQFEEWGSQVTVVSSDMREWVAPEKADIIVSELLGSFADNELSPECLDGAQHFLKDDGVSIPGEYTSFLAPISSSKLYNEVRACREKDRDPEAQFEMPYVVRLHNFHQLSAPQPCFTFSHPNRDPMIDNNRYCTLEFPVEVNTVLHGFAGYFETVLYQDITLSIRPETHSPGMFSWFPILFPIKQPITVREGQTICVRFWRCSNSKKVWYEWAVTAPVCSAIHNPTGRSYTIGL
# T1 sequence (Q9BQA1 whole entry partner): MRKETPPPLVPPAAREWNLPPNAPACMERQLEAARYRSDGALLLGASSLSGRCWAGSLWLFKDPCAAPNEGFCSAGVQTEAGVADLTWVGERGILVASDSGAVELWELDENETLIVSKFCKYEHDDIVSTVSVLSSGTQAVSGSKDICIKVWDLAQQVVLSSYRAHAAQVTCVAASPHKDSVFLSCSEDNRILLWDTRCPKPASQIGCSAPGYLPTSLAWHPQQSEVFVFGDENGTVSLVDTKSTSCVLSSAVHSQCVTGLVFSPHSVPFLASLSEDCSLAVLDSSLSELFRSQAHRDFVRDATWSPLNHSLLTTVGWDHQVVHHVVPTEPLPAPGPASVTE
row,SMILES,ΔTm at 8 µM [°C]
1,"CC(c1ccc(C(F)(F)F)cn1)N1CCC/C=C\c2cc3nc(N)c4cncn4c3cc2C1=O (racemic) [Example 352, (Z)-4-Amino-12-(1-(5-(trifluoromethyl)pyridin-2-yl)ethyl)-9,10,11,12-tetrahydro-13H-azo[4,3-g]imidazo[1,5-a]quinoxalin-13-one]",11
2,"C[C@@H]1CCN([C@@H]2COCc3nc(C(F)(F)F)ccc32)C(=O)c2cc3c(cc2CO1)nc(N)c1cncn13 [Example 15-P1, (R)-4-amino-9-methyl-12-((S)-2-(trifluoromethyl)-5,8-dihydro-6H-pyrano[3,4-b]pyridin-5-yl)-9,10,11,12-tetrahydroimidazo[1,5-a][1,5]oxazolo[8,7-g]quinoxalin-13(7H)-one and (S)-4-amino-9-methyl-12-((R)-2-(trifluoromethyl)-5,8-dihydro-6H-pyrano[3,4-b]pyridin-5-yl)-9,10,11,12-tetrahydroimidazo[1,5-a][1,5]oxazolo[8,7-g]quinoxalin-13(7H)-one]",10.1
3,"Nc1nc2cc3c(cc2n2cncc12)C(=O)N(C1COCc2nc(C(F)(F)F)ccc21)CCCCOC3 (stereo not shown) [Example 48, 4-Amino-13-(2-(trifluoromethyl)-5,8-dihydro-6H-pyrano[3,4-b]pyridin-5-yl)-10,11,12,13-tetrahydro-7H-imidazo [1,5-a] [1,6] oxazino [3,4-g] quinoxalin-14(9H)-one]",10.9
4,"Nc1nc2cc3c(cc2n2cncc12)C(=O)N(C1COCc2nc(C(F)(F)F)ccc21)CCCCC3 (stereo not shown) [Example 159, 4-Amino-12-(2-(trifluoromethyl)-5,8-dihydro-6H-pyrano[3,4-b]pyridin-5-yl)-7,8,9,10,11,12-hexahydro-13H-azonino[4,3-g]imidazo[1,5-a]quinoxalin-13-one]",10.5
5,"Nc1nc2cc3c(cc2n2cncc12)C(=O)N(C1COCc2cc(C(F)(F)F)ccc21)CCC/C=C\3 (stereo not shown) [Example 167, (Z)-4-Amino-12-(7-trifluoromethylisochroman-4-yl)-9,10,11,12-tetrahydro-13H-azonino[4,3-g]imidazo[1,5-a]quinoxalin-13-one]",12.3
6,"Nc1nc2cc3c(cc2n2cncc12)C(=O)N(Cc1ccc(C(F)(F)F)nn1)CCC/C=C\3 [Example 391, (Z)-4-Amino-12-(6-(trifluoromethyl)pyridazin-3-yl)methyl-9,10,11,12-tetrahydro-13H-azonino[4,3-g]imidazo[1,5-a]quinoxalin-13-one]",10.9
7,"CC(c1ccc(C(F)(F)F)nc1)N1CCC/C=C\c2cc3nc(N)c4cncn4c3cc2C1=O (stereo not shown) [Example 415, (Z)-4-Amino-12-(1-(6-(trifluoromethyl)pyridin-3-yl)ethyl)-9,10,11,12-tetrahydro-13H-azo[4,3-g]imidazo[1,5-a]quinoxalin-13-one]",10.3
8,"CN1CCCN(Cc2ccc(C(F)(F)F)cn2)C(=O)c2cc3c(cc2C1)nc(N)c1cnn(C)c13 [Example 502, 4-Amino-1,8-dimethyl-12-((5-(trifluoromethyl)pyridin-2-yl)methyl)-7,8,9,10,11,12-hexahydro-[1,5]diazonino[7,8-g]pyrazolo[4,3-c]quinolin-13(1H)-one]",10.6
9,"C[C@@H]1CCCN(Cc2ccc(C(F)(F)F)cn2)C(=O)c2cc3c(cc2C1)nc(N)c1cncn13 [Example 514-P1, (R)-4-amino-8-methyl-12-((5-(trifluoromethyl)pyridin-2-yl)methyl)-7,8,9,10,11,12-hexahydro-13H-azo[4,3-g]imidazo[1,5-a]quinoxalin-13-one]",11.3
10,"Cc1nc(CN2CC/C=C\c3cc4nc(N)c5cncn5c4cc3C2=O)ccc1C(F)(F)F [Example 688, (Z)-4-Amino-11-((6-methyl-5-(trifluoromethyl)pyridin-2-yl)methyl)-10,11-dihydroazo[4,3-g]imidazo[1,5-a]quinoxalin-12(9H)-one]",11.6
